Legend:
Format in all cases: physicochemical
[1] = Solution stability (pH 5.2) at high temperature, impurities by HPLC; conditions: solution 1 mg/mL; for Total impurities, 4th day: 4 days; for Total impurities, 7th day: 7 days; for Total impurities, 14th day: 14 days
Description: Solution Stability (pH 5.2)
Sibutramine free base, sibutramine hydrochloride monohydrate and sibutramine inclusion complex (Examples 1 and 2) were compared in terms of solution stability at high temperature.
Specifically, each compound was dissolved into the concentration of 1 mg/mL and pH 5.2, and the solution was moved to a 20 mL vial. Solution stability test was conducted at 60° C. and 70° C., respectively, by measuring the content of impurities with high performance liquid chromatography (HPLC) after the storage for 4, 7 and 14 days.

[2] = Temperature & humidity stability, impurities by HPLC; conditions: for Content of impurities, 60° C., 75%: stored at 60° C. 75% for 2 weeks; for Content of impurities, 60° C., 93%: stored at 60° C. 93% for 2 weeks; for Content of impurities, 70° C., 75%: stored at 70° C. 75% for 2 weeks
Description: Temperature & Humidity Stability
Sibutramine free base, sibutramine hydrochloride monohydrate and sibutramine inclusion complex (Examples 1 and 2) were compared in terms of temperature and humidity stability.
Specifically, each compound was stored under the condition selected from the group consisting of 60° C. 75%, 60° C. 93% and 70° C. 75% for 2 weeks. The content impurities was measured with high performance liquid chromatography (HPLC).

[3] = Photo-stability after UV-irradiation, impurities by HPLC; conditions: for Content of impurities, UV: after UV-irradiation for 120 hours (total radiation dosage: 200 watt); for Content of impurities, Initial: before UV-irradiation
Description: Sibutramine free base, sibutramine hydrochloride monohydrate and sibutramine inclusion complex (Examples 1 and 2) were compared in terms of photo-stability.
After UV-irradiation for 120 hours (total radiation dosage: 200 watt), the content of impurities was measured with high performance liquid chromatography (HPLC).

| SMILES | Total impurities, 4th day ([1]; pH 5.2, 60 C.) [%] | Total impurities, 7th day ([1]; pH 5.2, 60 C.) [%] | Total impurities, 14th day ([1]; pH 5.2, 60 C.) [%] | Total impurities, Initial ([1]; pH 5.2, 60 C.) [%] | Total impurities, 4th day ([1]; pH 5.2, 70 C.) [%] | Total impurities, 7th day ([1]; pH 5.2, 70 C.) [%] | Total impurities, 14th day ([1]; pH 5.2, 70 C.) [%] | Total impurities, Initial ([1]; pH 5.2, 70 C.) [%] | Temperature and humidity stability, in words ([2]; comparison of Table 3) | Content of impurities, Initial [2] | Content of impurities, 60° C., 75% [2] | Content of impurities, 60° C., 93% [2] | Content of impurities, 70° C., 75% [2] | Content of impurities, UV [3] | Content of impurities, Initial [3] |
| --- | --- | --- | --- | --- | --- | --- | --- | --- | --- | --- | --- | --- | --- | --- | --- |
| CC(C)CC(N(C)C)C1(c2ccc(Cl)cc2)CCC1 (centres unmarked) [Sibutramine free base, N,N-dimethyl-1-[1-(4-chlorophenyl)-cyclobutyl]-3-methylbutylamine] | 7.59 | 13.77 | 17.16 | 0.00 | 10.04 | 17.05 | 20.52 | 0.00 | most unstable | 0.00 | 5.65 | 6.09 | 8.27 | 0.33 | 0.00 |
| CC(C)CC(N(C)C)C1(c2ccc(Cl)cc2)CCC1.Cl (centres unmarked) [Sibutramine hydrochloride monohydrate] | 0.02 | 0.02 | 0.09 | 0.00 | 1.56 | 2.09 | 4.49 | 0.00 |  | 0.00 | 0.06 | 0.07 | 0.13 | 0.11 | 0.06 |

Source: US20100099773A1, “INCLUSION COMPLEX OF S[…] BETA-CYCLODEXTRIN” (priority 2006, published 2010)
